# Source: EPA's ToxValDB 9.5 (doi:10.2903/j.efsa.2007.106r)
# “And” between values parts separate entries of the source, which are not always exact repeats. Equal values may be shown once.
# Legend:
# [1] = tested on: Rattus norvegicus; settings: for LD50: acute, oral, mortality
# [2] = tested on: Anas platyrhynchos; settings: for NOEL / NOEC: reproductive
# [3] = tested on: Colinus virginianus; settings: for NOEL / NOEC: reproduction developmental
# [4] = tested on: Bibionidae; settings: chronic/long-term
# [5] = tested on: Daphnia magna; settings: chronic/long-term
# [6] = tested on: Apis mellifera; settings: acute, mortality
# [7] = tested on: Canidae; settings: chronic; duration: 1 years; Dog Other; clinical chemistry
# [8] = tested on: Mus musculus; settings: acute, oral, mortality
# [9] = tested on: Tagia sp.
# [10] = tested on: Oncorhynchus mykiss
# [11] = tested on: Folsomia candida; settings: chronic/long-term
# [12] = tested on: Typhlodromus pyri; experiment: LR50; higher = less toxic; settings: not reported; mortality
# [13] = tested on: Aphidius rhopalosiphi; experiment: LR50; higher = less toxic; settings: chronic/long-term; mortality
# [14] = acute, duration: 5 days, oral, diet, mortality
structure (smiles),measurement,setting,value
OC(Cc1ccccc1Cl)(Cn1cncn1)C1(Cl)CC1 (stereo not drawn),NOAEL,"[1]; chronic, organ weight",1.1 mg/kg-day
same,NOAEL,"[1]; developmental, development",1 mg/kg-day
same,NOEL,"[2]; duration: 20 weeks, oral, feed",63 mg/kg-day
same,LD50,"[3]; acute, oral, diet, mortality",> 297 mg/kg-day
same,LD50,"[3]; acute, oral, mortality",> 2000 mg/kg
same,NOEL,"[3]; duration: 20 weeks, oral, diet",14.8 mg/kg-day
OC(Cc1ccccc1Cl)(Cn1[nH]cnc1=S)C1(Cl)CC1 (stereo not drawn) [Prothioconazole],NOEC,[4],9.14 mg/L
same,NOEC,[5],0.56 mg/L
same,LD50,[6]; dermal,> 200 µg/piece
same,LD50,"[6]; oral, unspecified",> 71 µg/piece
same,NOAEL,[7],5 mg/kg-day
same,LD50,[1]; F,2510 mg/kg-day
same,LD50,[1]; M/F,> 6200 mg/kg-day
same,LD50,[1]; M,2810 mg/kg-day
same,NOAEL,"[1]; chronic, duration: 2 years, organ weight",5 mg/kg-day
same,NOAEL,"[1]; developmental, development",20 mg/kg-day
same,LD50,[8]; F,3460 mg/kg
same,LD50,[8]; M,2240 mg/kg-day
same,NOEC,[2]; duration: 20 weeks,≥ 500 mg/kg
same,NOEL,[2]; duration: 20 weeks,63 mg/kg-day
same,NOEC,[2]; duration: 21 weeks,700 mg/kg
same,NOEL,[2]; duration: 21 weeks,78 mg/kg-day
same,LD50,"[2]; short-term, duration: 5 days, oral, feed, mortality",> 2460 mg/kg-day
same,LC50,"[2]; short-term, duration: 5 days, oral, feed, reproduction",> 5000 mg/kg
same,LC50,"[9]; acute, mortality",> 1000 mg/kg
same,NOEC,[9]; chronic/long-term,1.33 mg/kg
same,LC50,[3]; [14],> 5000 mg/kg and 4090 mg/kg
same,LD50,[3]; [14],> 1410 mg/kg-day
same,LD50,"[3]; acute, oral, mortality",> 2000 mg/kg
same,NOEC,[3]; duration: 20 weeks,173 mg/kg-day
same,NOEL,[3]; duration: 20 weeks,14.8 mg/kg-day
same,NOEC,[3]; duration: 22 weeks,≥ 1000 mg/kg-day
same,NOEL,[3]; duration: 22 weeks,≥ 86 mg/kg-day
same,LC50,"[10]; acute, mortality",1.83 µg/mL
same,NOEC,"[10]; chronic/long-term, other",0.308 mg/L
same,NOEC,[11],64 mg/kg
same,LR50,[12],18.7 g/ha
same,LR50,[13],140 g/ha
